Data on two compounds can be found in US20140295512A1, “Ketol-Acid Reductoisomerases With Improved Performance Properties” (CALIFORNIA INSTITUTE OF TECHNOLOGY, priority 2011, published 2014).

One assay addresses E. coli KARI (Escherichia coli, UniProt P05793). Kind of assay: KARI assay in 100-μL scale to measure IC50 in presence of R-DHIV. The note with it: for Ki: calculated via Cheng-Prusoff equation. It is filed as biochemical. The protocol:
(§1) Assay buffers were prepared containing 250 mM potassium phosphate pH 7.0, 1 mM DTT, 10 mM MgCl2, 2.5 mM acetolactate, 200 μM NADPH, and increasing concentrations of R-DHIV (0-85.5 mM (final concentrations). Ten μL purified enzyme were placed into a flat-bottom assay plate (Evergreen Scientific). The reactions were initiated by addition of 90 μL assay buffer. The change in absorbance at 340 nm was monitored over 1 min in a plate reader (TECAN).

A further assay deals with L. lactis KARI (Lactococcus lactis subsp. lactis, UniProt Q02138). Described as above. It is filed as biochemical. The protocol: as §1
In another assay the target is S. exigua KARI (Slackia exigua, UniProt D0WGK0). The description is as above. It is filed as biochemical. The protocol:
as §1

The target in a further assay is Ec_ilvC^P2D1-A1. The assay can be described thus: NKR assay in microtiter plates to measure inhibition by DHIV. It is filed as biochemical, E. coli. The note with it: 200 μM NADH, varied (S)-2-acetolactate, pH 7; read-out: K of Ec_ilvC^P2D1-A1 for DHIV (inhibition constant). The protocol: NKR activity was assayed kinetically by monitoring the decrease in NADH concentration by measuring the absorbance at 340 nm. A reaction buffer was prepared containing 250 mM potassium phosphate pH 7, 1 mM DTT, 200 μM NADH, 2.5 mM (S)-2-acetolactate, and 10 mM MgCl2. Ten μL purified enzyme were placed into a microtiter plate. The reaction was initiated by addition of 90 μL of the reaction buffer. The kinetics with respect to substrate conversion in presence of the inhibitor were determined by varying the substrate concentration (5.1, 2.55, 1.275, 0.638, 0.319, 0.159, and 0.0799 mM), while keeping the cofactor concentration constant at 200 μM. The inhibition constant was measured by repeating these measurements with different amounts of inhibitor (0, 0.07, 0.13, 0.26, 0.51, and 1.07 mM, final concentrations).

The mark [1] stands for this setting: 2.5 mM acetolactate, 200 μM NADPH, pH 7.0.
Setting [2] is: calculated via Cheng-Prusoff equation.

As a reminder, the IC50 is the midpoint of a concentration-inhibition curve.

Molecules are shown by their SMILES. Where “and” joins values, the source holds several entries; their conditions need not be identical. Identical values can stand only once.

Chain of S. exigua KARI (D0WGK0 whole entry): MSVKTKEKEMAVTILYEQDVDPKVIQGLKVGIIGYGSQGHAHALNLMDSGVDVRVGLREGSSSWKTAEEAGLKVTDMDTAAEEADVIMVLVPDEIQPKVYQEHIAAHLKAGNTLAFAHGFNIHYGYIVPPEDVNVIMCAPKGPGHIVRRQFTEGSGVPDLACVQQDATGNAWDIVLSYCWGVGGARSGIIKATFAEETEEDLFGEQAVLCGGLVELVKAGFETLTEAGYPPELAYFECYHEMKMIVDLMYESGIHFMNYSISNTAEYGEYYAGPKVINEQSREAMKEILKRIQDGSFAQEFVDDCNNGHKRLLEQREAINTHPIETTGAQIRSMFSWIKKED
Chain of E. coli KARI (P05793 whole entry): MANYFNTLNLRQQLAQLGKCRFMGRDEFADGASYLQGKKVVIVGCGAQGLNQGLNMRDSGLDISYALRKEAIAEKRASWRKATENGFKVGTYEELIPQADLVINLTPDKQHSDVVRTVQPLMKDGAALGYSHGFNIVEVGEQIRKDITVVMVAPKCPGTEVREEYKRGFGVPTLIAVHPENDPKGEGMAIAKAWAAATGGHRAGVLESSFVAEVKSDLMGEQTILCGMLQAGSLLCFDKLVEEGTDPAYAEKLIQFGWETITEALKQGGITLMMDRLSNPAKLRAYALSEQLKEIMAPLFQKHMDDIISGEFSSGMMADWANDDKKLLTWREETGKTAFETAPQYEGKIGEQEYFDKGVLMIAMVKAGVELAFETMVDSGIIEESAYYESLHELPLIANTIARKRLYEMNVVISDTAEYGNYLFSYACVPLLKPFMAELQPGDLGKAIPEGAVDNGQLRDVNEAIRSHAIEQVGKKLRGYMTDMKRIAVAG
Chain of L. lactis KARI (Q02138 whole entry): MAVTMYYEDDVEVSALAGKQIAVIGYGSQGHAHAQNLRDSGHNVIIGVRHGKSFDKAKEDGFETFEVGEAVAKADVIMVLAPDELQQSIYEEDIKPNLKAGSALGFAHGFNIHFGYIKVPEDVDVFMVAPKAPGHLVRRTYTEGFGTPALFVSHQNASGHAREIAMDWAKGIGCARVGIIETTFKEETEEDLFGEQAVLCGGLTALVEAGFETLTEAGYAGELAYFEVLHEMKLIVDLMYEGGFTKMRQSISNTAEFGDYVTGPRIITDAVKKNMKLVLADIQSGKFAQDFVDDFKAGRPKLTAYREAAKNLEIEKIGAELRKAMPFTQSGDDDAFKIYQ

With `CC(C)(O)[C@@H](O)C(=O)O` [R-DHIV], the IC50 was 1000 µM and 1100 µM at E. coli KARI (setting [1]); 2500 ± 700 µM at L. lactis KARI (setting [1]); 26700 µM and 27000 µM at S. exigua KARI (setting [1]). The Ki on E. coli KARI was 100 µM; on L. lactis KARI (setting [2]), 1700 µM; at S. exigua KARI (setting [2]) it was 1700 µM. Also, on S. exigua KARI, the “IC50 on S. exigua KARI, times higher than IC50 of the E. coli KARI” value came out at 27 fold. Also, the “IC50 on S. exigua KARI, times higher than IC50 of the L. lactis KARI” value on S. exigua KARI turned out to be 10 fold. For the same compound, at S. exigua KARI, the “Ki on S. exigua KARI, times higher than Ki calculated for E. coli KARI” value is 17 fold.

Take `CC(C)(O)C(O)C(=O)O` (centres unmarked) [DHIV, 2,3-dihydroxyisovalerate]: the figures for the Ki at Ec_ilvC^P2D1-A1 and at E. coli KARI were 45 µM and 100 µM, respectively.
